Results: ChEMBL document CHEMBL1139100, “Discovery of anticonvulsant activity of abietic acid through application of linear discriminant analysis” (Bioorg Med Chem Lett, 2007)
Calls of active or inactive are those of the source. The rule behind the calls is not given here.

Columns and labels:
Mus musculus [1] = assay: Anticonvulsant activity in Swiss mouse at 30 mg/kg, po after 4 hrs by MES test; format: functional, organism-based; set-up: dose 30 mg/kg
Mus musculus [2] = assay: Anticonvulsant activity in Swiss mouse at 30 mg/kg, ip after 4 hrs by MES test; format: functional, organism-based; set-up: dose 30 mg/kg
Mus musculus [3] = assay: Anticonvulsant activity in Swiss mouse at 100 mg/kg, ip after 0.5 hrs by MES test; format: functional, organism-based; set-up: dose 100 mg/kg
Mus musculus [4] = assay: Anticonvulsant activity in Swiss mouse at 30 mg/kg, ip after 0.5 hrs by PTZ test; format: functional, organism-based; set-up: dose 30 mg/kg
Mus musculus [5] = assay: Anticonvulsant activity in Swiss mouse at 30 mg/kg, ip after 4 hrs by PTZ test; format: functional, organism-based; set-up: dose 30 mg/kg
Mus musculus [6] = assay: Anticonvulsant activity in Swiss mouse at 100 mg/kg, po after 0.5 hrs by MES test; format: functional, organism-based; set-up: dose 100 mg/kg
Mus musculus [7] = assay: Anticonvulsant activity in Swiss mouse at 100 mg/kg, ip after 4 hrs by MES test; format: functional, organism-based; set-up: dose 100 mg/kg
Mus musculus [8] = assay: Neurotoxicity against Swiss mouse at 30 mg/kg, ip after 0.5 hrs by rotarod test; format: toxicity, organism-based; set-up: dose 30 mg/kg, route intraperitoneal; conditions: in vivo
Mus musculus [9] = assay: Neurotoxicity against Swiss mouse at 100 mg/kg, ip after 4 hrs by rotarod test; format: toxicity, organism-based; set-up: dose 100 mg/kg, route intraperitoneal; conditions: in vivo
Mus musculus [10] = assay: Anticonvulsant activity in Swiss mouse at 100 mg/kg, ip after 0.5 hrs by PTZ test; format: functional, organism-based; set-up: dose 100 mg/kg
Mus musculus [11] = assay: Anticonvulsant activity in Swiss mouse at 30 mg/kg, po after 0.5 hrs by PTZ test; format: functional, organism-based; set-up: dose 30 mg/kg
Mus musculus [12] = assay: Neurotoxicity against Swiss mouse at 30 mg/kg, po after 0.5 hrs by rotarod test; format: toxicity, organism-based; set-up: dose 30 mg/kg, route oral; conditions: in vivo
Mus musculus [13] = assay: Anticonvulsant activity in Swiss mouse at 100 mg/kg, po after 4 hrs by PTZ test; format: functional, organism-based; set-up: dose 100 mg/kg
Mus musculus [14] = assay: Neurotoxicity against Swiss mouse at 100 mg/kg, po after 4 hrs by rotarod test; format: toxicity, organism-based; set-up: dose 100 mg/kg, route oral; conditions: in vivo
Mus musculus [15] = assay: Anticonvulsant activity in Swiss mouse at 30 mg/kg, po after 4 hrs by PTZ test; format: functional, organism-based; set-up: dose 30 mg/kg
Mus musculus [16] = assay: Anticonvulsant activity in Swiss mouse at 100 mg/kg, po after 4 hrs by MES test; format: functional, organism-based; set-up: dose 100 mg/kg
Mus musculus [17] = assay: Neurotoxicity against Swiss mouse at 30 mg/kg, po after 4 hrs by rotarod test; format: toxicity, organism-based; set-up: dose 30 mg/kg, route oral; conditions: in vivo
Mus musculus [18] = assay: Anticonvulsant activity in Swiss mouse at 30 mg/kg, ip after 0.5 hrs by MES test; format: functional, organism-based; set-up: dose 30 mg/kg
Mus musculus [19] = assay: Neurotoxicity against Swiss mouse at 100 mg/kg, po after 0.5 hrs by rotarod test; format: toxicity, organism-based; set-up: dose 100 mg/kg, route oral; conditions: in vivo
Mus musculus [20] = assay: Anticonvulsant activity in Swiss mouse at 30 mg/kg, po after 0.5 hrs by MES test; format: functional, organism-based; set-up: dose 30 mg/kg
Mus musculus [21] = assay: Anticonvulsant activity in Swiss mouse at 100 mg/kg, ip after 4 hrs by PTZ test; format: functional, organism-based; set-up: dose 100 mg/kg
Mus musculus [22] = assay: Neurotoxicity against Swiss mouse at 100 mg/kg, ip after 0.5 hrs by rotarod test; format: toxicity, organism-based; set-up: dose 100 mg/kg, route intraperitoneal; conditions: in vivo
Mus musculus [23] = assay: Neurotoxicity against Swiss mouse at 30 mg/kg, ip after 4 hrs by rotarod test; format: toxicity, organism-based; set-up: dose 30 mg/kg, route intraperitoneal; conditions: in vivo
Mus musculus [24] = assay: Anticonvulsant activity in Swiss mouse at 100 mg/kg, po after 0.5 hrs by PTZ test; format: functional, organism-based; set-up: dose 100 mg/kg

CC(C)C1=CC2=CC[C@@H]3[C@](C)(CCC[C@@]3(C)C(=O)O)[C@H]2CC1 [ABIETIC ACID]
Activity (Mus musculus [1]): Active | Activity (Mus musculus [2]): Active | Activity (Mus musculus [3]): inactive | Activity (Mus musculus [4]): inactive | Activity (Mus musculus [5]): inactive | Activity (Mus musculus [6]): inactive | Activity (Mus musculus [7]): Active | Activity (Mus musculus [8]): Non-toxic | Activity (Mus musculus [9]): Non-toxic | Activity (Mus musculus [10]): inactive | Activity (Mus musculus [11]): inactive | Activity (Mus musculus [12]): Non-toxic | Activity (Mus musculus [13]): inactive | Activity (Mus musculus [14]): Non-toxic | Activity (Mus musculus [15]): inactive | Activity (Mus musculus [16]): Active | Activity (Mus musculus [17]): Non-toxic | Activity (Mus musculus [18]): inactive | Activity (Mus musculus [19]): Non-toxic | Activity (Mus musculus [20]): inactive | Activity (Mus musculus [21]): inactive | Activity (Mus musculus [22]): Non-toxic | Activity (Mus musculus [23]): Non-toxic | Activity (Mus musculus [24]): inactive
